Results reported in ChEMBL document CHEMBL2010662, “Discovery of oxazole-based PDE4 inhibitors with picomolar potency” (Bioorg Med Chem Lett, 2012).

Columns and labels:
[1] = Inhibition of PDE10
[2] = biological target: 3',5'-cyclic-AMP phosphodiesterase 4B (Homo sapiens, UniProt Q07343); assay: Inhibition of PDE4B
[3] = biological target: Dual 3',5'-cyclic-AMP and -GMP phosphodiesterase 11A (Homo sapiens, UniProt Q9HCR9); assay: Inhibition of PDE11
[4] = biological target: 3',5'-cyclic-AMP phosphodiesterase 4D (Homo sapiens, UniProt Q08499); assay: Inhibition of PDE4D
[5] = biological target: Cytochrome P450 2C9 (Homo sapiens, UniProt P11712); assay: Inhibition of CYP2C9; type: ADME
[6] = Inhibition of PDE4-mediated TNF-alpha release by cell based assay
[7] = Cmax in rat at 10 mg/kg, po; type: ADME, organism-based; parameters: dose 10 mg/kg, route oral; details: in vivo
[8] = test system: Rattus norvegicus; assay: Antiinflammatory activity in po dosed rat assessed as inhibition of LPS-induced pulmonary inflammation; type: functional
[9] = Oral bioavailability in rat at 10 mg/kg; type: ADME, organism-based; details: in vivo
[10] = biological target: Cytochrome P450 2C19 (Homo sapiens, UniProt P33261); assay: Inhibition of CYP2C19; type: ADME
[11] = biological target: Cytochrome P450 3A4 (Homo sapiens, UniProt P08684); assay: Inhibition of CYP3A4; type: ADME
[12] = biological target: Cytochrome P450 2D6 (Homo sapiens, UniProt P10635); assay: Inhibition of CYP2D6; type: ADME
Chain of Cytochrome P450 2D6 (P10635 whole entry): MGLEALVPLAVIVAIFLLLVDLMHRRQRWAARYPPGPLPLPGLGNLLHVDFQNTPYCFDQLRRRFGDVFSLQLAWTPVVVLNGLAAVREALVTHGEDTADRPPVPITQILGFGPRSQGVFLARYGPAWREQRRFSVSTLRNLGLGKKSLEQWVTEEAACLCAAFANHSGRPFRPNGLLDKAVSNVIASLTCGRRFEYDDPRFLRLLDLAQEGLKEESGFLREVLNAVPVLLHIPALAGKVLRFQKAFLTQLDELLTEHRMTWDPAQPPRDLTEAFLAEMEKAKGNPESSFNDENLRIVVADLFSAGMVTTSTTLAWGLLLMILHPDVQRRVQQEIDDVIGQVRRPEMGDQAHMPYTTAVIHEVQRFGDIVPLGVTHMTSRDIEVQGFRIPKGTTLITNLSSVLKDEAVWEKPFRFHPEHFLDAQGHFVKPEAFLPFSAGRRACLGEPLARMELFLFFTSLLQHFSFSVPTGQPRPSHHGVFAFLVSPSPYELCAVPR

Chain of 3',5'-cyclic-AMP phosphodiesterase 4B (Q07343 whole entry): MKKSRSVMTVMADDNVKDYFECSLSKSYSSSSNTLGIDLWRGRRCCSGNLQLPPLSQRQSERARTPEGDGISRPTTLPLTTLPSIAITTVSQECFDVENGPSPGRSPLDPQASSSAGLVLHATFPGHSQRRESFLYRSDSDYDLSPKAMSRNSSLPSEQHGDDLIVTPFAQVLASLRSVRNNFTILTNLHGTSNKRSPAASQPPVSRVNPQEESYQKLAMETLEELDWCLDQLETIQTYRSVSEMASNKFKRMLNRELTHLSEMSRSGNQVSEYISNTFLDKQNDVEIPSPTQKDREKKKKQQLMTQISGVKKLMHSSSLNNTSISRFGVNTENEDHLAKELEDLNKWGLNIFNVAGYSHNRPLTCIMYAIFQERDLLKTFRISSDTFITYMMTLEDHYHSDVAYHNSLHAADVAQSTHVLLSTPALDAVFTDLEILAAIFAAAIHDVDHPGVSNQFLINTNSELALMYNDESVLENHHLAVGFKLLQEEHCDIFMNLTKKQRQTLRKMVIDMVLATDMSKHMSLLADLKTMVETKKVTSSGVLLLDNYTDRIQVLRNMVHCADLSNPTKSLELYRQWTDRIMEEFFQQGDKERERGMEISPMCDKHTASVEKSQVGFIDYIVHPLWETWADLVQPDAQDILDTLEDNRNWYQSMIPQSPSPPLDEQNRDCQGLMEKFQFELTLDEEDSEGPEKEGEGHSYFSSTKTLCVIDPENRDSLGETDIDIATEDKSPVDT
Chain of Dual 3',5'-cyclic-AMP and -GMP phosphodiesterase 11A (Q9HCR9 whole entry): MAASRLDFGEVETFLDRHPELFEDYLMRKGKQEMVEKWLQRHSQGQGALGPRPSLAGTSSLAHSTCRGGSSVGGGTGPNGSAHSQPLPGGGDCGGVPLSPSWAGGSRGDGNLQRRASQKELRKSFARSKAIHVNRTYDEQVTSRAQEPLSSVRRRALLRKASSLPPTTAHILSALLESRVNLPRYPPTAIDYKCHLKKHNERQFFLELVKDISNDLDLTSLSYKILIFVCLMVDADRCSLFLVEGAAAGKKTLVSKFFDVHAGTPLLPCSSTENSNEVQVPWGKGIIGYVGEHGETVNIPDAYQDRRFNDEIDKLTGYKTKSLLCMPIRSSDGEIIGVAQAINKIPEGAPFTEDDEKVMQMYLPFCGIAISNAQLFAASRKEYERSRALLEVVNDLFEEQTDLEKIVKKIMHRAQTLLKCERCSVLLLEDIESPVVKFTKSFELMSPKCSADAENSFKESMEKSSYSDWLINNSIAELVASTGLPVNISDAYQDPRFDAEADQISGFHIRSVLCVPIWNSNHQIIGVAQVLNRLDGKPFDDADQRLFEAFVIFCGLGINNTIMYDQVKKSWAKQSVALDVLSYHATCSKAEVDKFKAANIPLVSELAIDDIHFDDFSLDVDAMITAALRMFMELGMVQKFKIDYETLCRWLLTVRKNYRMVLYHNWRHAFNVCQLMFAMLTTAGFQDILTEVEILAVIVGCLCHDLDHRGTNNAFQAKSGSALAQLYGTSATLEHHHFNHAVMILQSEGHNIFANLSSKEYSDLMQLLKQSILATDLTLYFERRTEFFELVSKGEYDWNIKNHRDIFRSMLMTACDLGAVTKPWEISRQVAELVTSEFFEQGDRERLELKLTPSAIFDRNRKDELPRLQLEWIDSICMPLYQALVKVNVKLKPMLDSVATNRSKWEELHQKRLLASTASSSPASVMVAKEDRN
Chain of Cytochrome P450 2C19 (P33261 whole entry): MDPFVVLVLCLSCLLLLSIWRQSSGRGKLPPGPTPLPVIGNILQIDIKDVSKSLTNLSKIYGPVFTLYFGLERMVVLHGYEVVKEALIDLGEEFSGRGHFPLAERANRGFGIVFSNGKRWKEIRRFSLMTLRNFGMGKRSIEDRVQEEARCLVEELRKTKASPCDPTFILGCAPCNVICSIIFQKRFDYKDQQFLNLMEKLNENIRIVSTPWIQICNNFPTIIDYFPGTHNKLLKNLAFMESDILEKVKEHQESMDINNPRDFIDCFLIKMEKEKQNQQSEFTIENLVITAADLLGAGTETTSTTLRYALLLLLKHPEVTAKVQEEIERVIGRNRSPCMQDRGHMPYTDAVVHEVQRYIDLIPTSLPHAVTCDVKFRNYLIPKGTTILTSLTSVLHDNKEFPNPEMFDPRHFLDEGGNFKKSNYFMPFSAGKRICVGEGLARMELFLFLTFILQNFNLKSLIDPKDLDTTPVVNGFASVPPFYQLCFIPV
Chain of Cytochrome P450 2C9 (P11712 whole entry): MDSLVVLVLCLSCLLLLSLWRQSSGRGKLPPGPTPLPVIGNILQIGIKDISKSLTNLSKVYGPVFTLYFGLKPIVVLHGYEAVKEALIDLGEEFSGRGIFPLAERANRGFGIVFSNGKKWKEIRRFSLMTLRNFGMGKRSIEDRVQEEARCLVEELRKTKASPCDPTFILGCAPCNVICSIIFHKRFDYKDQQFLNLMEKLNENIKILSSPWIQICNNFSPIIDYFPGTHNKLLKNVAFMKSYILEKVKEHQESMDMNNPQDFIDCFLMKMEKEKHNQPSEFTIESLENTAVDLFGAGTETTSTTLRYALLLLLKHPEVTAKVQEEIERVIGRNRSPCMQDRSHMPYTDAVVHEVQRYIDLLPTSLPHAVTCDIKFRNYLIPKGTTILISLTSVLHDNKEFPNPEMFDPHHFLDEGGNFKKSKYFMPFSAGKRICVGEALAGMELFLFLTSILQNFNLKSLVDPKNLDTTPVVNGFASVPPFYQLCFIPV
Chain of Cytochrome P450 3A4 (P08684 whole entry): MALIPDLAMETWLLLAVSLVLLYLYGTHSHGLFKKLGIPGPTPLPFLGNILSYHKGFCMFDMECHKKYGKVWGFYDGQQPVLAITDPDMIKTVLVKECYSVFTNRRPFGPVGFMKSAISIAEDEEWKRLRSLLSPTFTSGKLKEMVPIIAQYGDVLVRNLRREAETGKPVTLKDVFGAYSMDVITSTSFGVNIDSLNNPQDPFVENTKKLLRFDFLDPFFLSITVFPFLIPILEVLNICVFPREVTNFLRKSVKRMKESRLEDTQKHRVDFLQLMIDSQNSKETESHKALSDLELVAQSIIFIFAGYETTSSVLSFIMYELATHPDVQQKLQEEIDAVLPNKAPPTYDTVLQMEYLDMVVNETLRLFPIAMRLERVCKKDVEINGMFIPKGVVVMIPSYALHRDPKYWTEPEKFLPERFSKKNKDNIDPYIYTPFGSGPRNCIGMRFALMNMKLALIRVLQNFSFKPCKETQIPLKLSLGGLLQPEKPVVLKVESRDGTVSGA
Chain of 3',5'-cyclic-AMP phosphodiesterase 4D (Q08499 whole entry): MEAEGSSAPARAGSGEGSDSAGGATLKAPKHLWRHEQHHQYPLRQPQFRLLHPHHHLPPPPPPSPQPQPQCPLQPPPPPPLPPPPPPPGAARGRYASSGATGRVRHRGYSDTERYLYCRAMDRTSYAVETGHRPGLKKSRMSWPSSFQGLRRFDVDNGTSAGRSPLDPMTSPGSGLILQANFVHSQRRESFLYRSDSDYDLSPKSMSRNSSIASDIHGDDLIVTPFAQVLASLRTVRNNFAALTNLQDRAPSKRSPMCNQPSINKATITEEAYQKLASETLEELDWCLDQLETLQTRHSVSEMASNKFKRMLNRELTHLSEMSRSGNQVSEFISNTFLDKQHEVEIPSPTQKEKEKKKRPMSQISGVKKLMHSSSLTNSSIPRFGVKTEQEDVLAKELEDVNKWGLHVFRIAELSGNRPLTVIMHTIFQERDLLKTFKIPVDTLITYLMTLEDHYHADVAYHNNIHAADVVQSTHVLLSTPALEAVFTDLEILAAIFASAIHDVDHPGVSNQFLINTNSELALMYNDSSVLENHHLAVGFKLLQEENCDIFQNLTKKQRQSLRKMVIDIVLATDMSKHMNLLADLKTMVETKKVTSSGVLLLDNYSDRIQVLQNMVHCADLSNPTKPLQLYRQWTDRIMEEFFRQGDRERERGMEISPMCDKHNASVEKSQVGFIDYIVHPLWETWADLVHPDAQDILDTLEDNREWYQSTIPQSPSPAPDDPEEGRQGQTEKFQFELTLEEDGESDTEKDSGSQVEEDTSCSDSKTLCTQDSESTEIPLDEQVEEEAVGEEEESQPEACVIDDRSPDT

SMILES | IC50 [1] | IC50 [2] | IC50 [3] | further results
COc1ccc(-c2nc(C(=O)NCc3ccc(F)cc3)c(CN)o2)c2ccc(C(F)(F)F)nc12 | 1300 nM | 4.1 nM | 2700 nM | 
COc1ccc(-c2nc(C(=O)NCc3ccccc3)c(CN)o2)c2ccc(C(F)(F)F)nc12 | 1200 nM | 3.7 nM | 4800 nM | 
COc1ccc(-c2nc(C(=O)NCc3cccc(F)c3)c(CN)o2)c2ccc(C(F)(F)F)nc12 | 810 nM | 1.8 nM | 3900 nM | 
COc1ccc(-c2nc(C(=O)N[C@H](CO)c3ccccc3)c(CN)o2)c2ccc(C(F)(F)F)nc12 |  | 1.6 nM |  | 
COc1ccccc1CNC(=O)c1nc(-c2ccc(OC)c3nc(C(F)(F)F)ccc23)oc1CN | 320 nM | 0.5 nM | 870 nM | 
COc1ccc(-c2nc(C(=O)N[C@H](CO)c3ccccc3)c([C@@H](C)N)o2)c2ccc(C(F)(F)F)nc12 |  | 8.4 nM |  | 
COc1ccc(-c2nc(C(=O)NCc3ccc(S(C)(=O)=O)cc3)c(CN)o2)c2ccc(C(F)(F)F)nc12 |  | 37 nM |  | 
COc1ccc(-c2nc(C(=O)NCc3c(F)cccc3F)c(CN)o2)c2ccc(C(F)(F)F)nc12 | 240 nM | 0.46 nM | 2500 nM | 
COc1ccc(-c2nc(C(=O)NCc3ccc(C#N)cc3)c(CN)o2)c2ccc(C(F)(F)F)nc12 |  | 26 nM |  | 
COc1ccc(-c2nc(C(=O)NCc3ccc(F)cc3F)c([C@@H](N)C(C)C)o2)c2ccc(C(F)(F)F)nc12 |  | 0.36 nM |  | 
COc1ccc(-c2nc(C(=O)NCc3c(F)cccc3Cl)c(CN)o2)c2ccc(C(F)(F)F)nc12 | 410 nM | 0.1 nM | 1300 nM | 
COc1ccc(-c2nc(C(=O)NCc3ccc(F)c(F)c3)c(CN)o2)c2ccc(C(F)(F)F)nc12 | 1300 nM | 2.6 nM | 2200 nM | 
COc1ccc(-c2nc(C(=O)NCc3ccccc3Cl)c(CN)o2)c2ccc(C(F)(F)F)nc12 | 610 nM | 1.2 nM | 2300 nM | 
COc1ccc(-c2nc(C(=O)NCc3cccc(F)c3)c([C@H](C)N)o2)c2ccc(C(F)(F)F)nc12 | 160 nM | 0.3 nM | 1400 nM | 
COc1ccc(-c2nc(C(=O)NCc3ccc(F)cc3F)c([C@H](C)N)o2)c2ccc(C(F)(F)F)nc12 | 950 nM | 0.06 nM | 2300 nM | IC50 [5]: > 8000 nM; IC50 [6]: 0.6 nM; Cmax [7]: 960 nM; ED50 [8]: 0.1 mg/kg; bioavailability [9]: 24%; IC50 [10]: > 8000 nM; IC50 [11]: > 8000 nM; IC50 [12]: > 8000 nM
COc1ccc(-c2nc(C(=O)NCc3ccc(Cl)cc3)c([C@@H](N)CO)o2)c2ccc(C(F)(F)F)nc12 |  | 12.7 nM |  | 
COc1ccc(-c2nc(C(=O)NCc3ccccc3F)c(CN)o2)c2ccc(C(F)(F)F)nc12 | 500 nM | 0.9 nM | 3600 nM | 
CC[C@H](N)c1oc(-c2ccc(OC)c3nc(C(F)(F)F)ccc23)nc1C(=O)NCc1ccc(Cl)cc1 |  | 0.81 nM |  | 
COc1ccc(-c2nc(C(=O)N[C@H](CO)c3ccccc3)c([C@H](C)N)o2)c2ccc(C(F)(F)F)nc12 |  | 0.11 nM |  | 

More lines, in order of falling IC50 [2], values ahead:

IC50 [1] | IC50 [2] | IC50 [3] | SMILES | further results
1300 nM | 4.3 nM | 1100 nM | COc1ccc(-c2nc(C(=O)NCc3ccc(Cl)cc3Cl)c(CN)o2)c2ccc(C(F)(F)F)nc12 | 
2100 nM | 3.4 nM | 2700 nM | COc1ccc(-c2nc(C(=O)NCc3ccc(Cl)cc3)c(CN)o2)c2ccc(C(F)(F)F)nc12 | 
2200 nM | 2.7 nM | 2700 nM | COc1ccc(-c2nc(C(=O)NCc3ccc(Cl)cc3F)c(CN)o2)c2ccc(C(F)(F)F)nc12 | 
770 nM | 1.5 nM | 2100 nM | COc1ccc(-c2nc(C(=O)NCc3cccc(Cl)c3)c(CN)o2)c2ccc(C(F)(F)F)nc12 | 
1700 nM | 0.7 nM | 1800 nM | COc1ccc(-c2nc(C(=O)NCc3ccc(Cl)cc3Cl)c([C@H](C)N)o2)c2ccc(C(F)(F)F)nc12 | 
700 nM | 0.7 nM | 1100 nM | COc1ccc(-c2nc(C(=O)NCc3ccc(Cl)cc3F)c([C@H](C)N)o2)c2ccc(C(F)(F)F)nc12 | 
1000 nM | 0.6 nM | 2200 nM | COc1ccc(-c2nc(C(=O)NCc3ccc(F)cc3F)c(CN)o2)c2ccc(C(F)(F)F)nc12 | IC50 [4]: 0.7 nM
1400 nM | 0.6 nM | 2000 nM | COc1ccc(-c2nc(C(=O)NCc3ccc(F)c(F)c3)c([C@H](C)N)o2)c2ccc(C(F)(F)F)nc12 | 
650 nM | 0.35 nM | 1100 nM | COc1ccc(-c2nc(C(=O)NCc3ccc(Cl)cc3)c([C@H](C)N)o2)c2ccc(C(F)(F)F)nc12 | 
80 nM | 0.3 nM | 1100 nM | COc1ccc(-c2nc(C(=O)NCc3ccccc3F)c([C@H](C)N)o2)c2ccc(C(F)(F)F)nc12 | 
125 nM | 0.05 nM | 1400 nM | COc1ccc(-c2nc(C(=O)NCc3c(F)cccc3F)c([C@H](C)N)o2)c2ccc(C(F)(F)F)nc12 | 
500 nM | 0.04 nM | 3400 nM | COc1ccc(-c2nc(C(=O)NCc3c(F)cc(F)cc3F)c([C@H](C)N)o2)c2ccc(C(F)(F)F)nc12 | 
120 nM | 0.03 nM | 1600 nM | COc1ccc(-c2nc(C(=O)NCc3c(F)cccc3Cl)c([C@H](C)N)o2)c2ccc(C(F)(F)F)nc12 | 
